Assay results taken from PMC4585737, “Lipoproteins/peptides are sepsis-inducing toxins from bacteria that can be neutralized by synthetic anti-endotoxin peptides” (Scientific Reports, 2015).
Entries after “also recorded” stand apart in the source; their conditions may differ.

Experiments:
Balb/C mice = test: Serum cytokine response in mice after intraperitoneal inoculation; assay type: in vivo, mouse; conditions: 400 μg peptide i.p. immediately after 40 μg FSL-1, different site, n = 5
Protocol: Seven-week-old female SPF-free Balb/C mice of 20 g of body weight, approximately, were purchased from Harlan Spain (Harlan Interfauna Iberica S.A., Barcelona, Spain) and randomly distributed in experimental groups (at least 4 animals per group except for the determination of lethal dose (n = 3)). Sample size was calculated based on previous results with the same animal model. Animals were housed in individually ventilated cages (5 mice per cage) bedded with hardwood bedding. Mice were provided ad libitum access to feed and water and lighting was adjusted to a 14-hour light/10-hour dark cycle. During the experiments, the condition of the animals was monitored daily every 4 hours and animals displaying persistent motor ataxia and hunched posture were euthanized.
To study if FSL-1 had pro-inflammatory cytokine-inducing activity, animals were intraperitoneally inoculated with 40 μg of FSL-1 resuspended in 200 μl of pyrogen-free saline. Blood samples were taken both at 1.5 h or 4 h after FSL-1 challenge to measure TNFα and IL-6 levels. For this purpose, mice were anesthetised, a blood sample was obtained by the retroorbital plexus and serum cytokine levels were measured using Quantikine Immunoassays kits (R&D systems, Minneapolis, USA) following manufacturer’s instructions. Differences between groups were statistically analyzed using the Mann-Whitney U test.
To evaluate the ability of Aspidasept® to neutralize the FSL-1 induced pro-inflammatory cytokines, a group of animals received by the intraperitoneal route first 40 μg of FSL-1 and then 400 μg of the drug resuspended in 100 μl of pyrogen-free saline. This second injection was administered immediately after FSL-1 challenge at a different site of the peritoneum. TNFα and IL-6 levels were measured (see above) at 1.5 h or 4 h after challenge, respectively, coinciding with the peak of cytokine secretion, as determined in preliminary experiments.

human MNCs = conditions: even at [LPS]:[Aspidasept] weight ratios as low as 1:1; cited from earlier work
Excerpt: In this section, we first present in vitro data on the production of pro-inflammatory cytokines by human cells in response to LP or LTA from different origin and its neutralization by SALP. Then, we used a mouse model of acute toxemia to characterize the in vivo expression of those cytokines and to study if SALP can protect animals against lethal LP-induced sepsis.

human mononuclear cells = test: TNFα production in human mononuclear cells (MNC) stimulated by LP, LTA or PGN, and its inhibition by SALP; assay type: cell-based
Protocol: The stimulation of MNC was performed as described previously. Briefly, MNC were isolated from heparinized blood of healthy donors by the Hypaque-Ficoll density gradient method. The cell number was equilibrated at 5 × 10^6 cells/ml RPMI 1640 containing 2 mM L-glutamine, 100 U/ml penicillin and 100 μg/ml streptomycin. For stimulation, 200 μl/well MNC were transferred into 96-well culture plates. The stimuli were serially diluted in RPMI 1640 and added to the cultures at 20 μl per well. The cultures were incubated for 4 h at 37 °C under 5% CO2. Cell-free supernatants were collected after centrifugation of the culture plates for 10 min at 400 × g and stored at −20 °C until the determination of the cytokine content. Immunological determination of TNFα in the cell supernatant was performed in a sandwich-ELISA as described earlier (OptEIA; BD, Heidelberg, Germany). TNFα was determined and measured following manufacturer’s instructions and results are the average of two assays.
LP preparations were pre-warmed for 30 min at 37 °C, and added to the cultures at 20 μl per well. In inhibition experiments, different SALP were added directly after LPS/LP/LTA administration.
Since the data of the stimulation of human MNC by the bacterial and synthetic LP was taken over a time period of more than 6 years, the TNFα production lead to considerable variations due to different batches of LP and of Pep19-2.5, and in particular due to variations resulting from blood samples of different donors. Because the main emphasis laid here is the efficiency of the peptide to inhibit the cytokine production, most figures describe the inhibition efficieny of the peptide in %, by presenting the means ± SEM of at least 3 independent experiments. The absolute values of the cytokine production, where of note, is given separately in the text.

GCKKYRRFRWKFKGKFWFWG [Aspidasept®, synthetic anti-LPS peptide (SALP), 20′mer, anti-septic therapeutic drug candidate]
inhibition of FSL-1 induced TNFα stimulation in mice (Balb/C mice; 1.5 h, p < 0.01): totally inhibited
reduction of FSL-1 induced IL-6 levels in mice (Balb/C mice; 4 h): slight reduction
inhibition of LPS-induced cytokine expression in human MNCs (human MNCs): efficiently inhibits
inhibition of TNFα induction by LP, LTA and PGN (human mononuclear cells; 10:1 excess weight ratio of the peptide): takes place in most cases
cytokine expression induced by LP, LTA and PGN in presence of peptide (human mononuclear cells; 100:1 weight ratio of the peptide): no longer any detectable cytokine expression
reduction of FSL-1-induced TNFα secretion (human mononuclear cells; stimulus FSL-1 100 and 10 ng/ml, 10-fold (10:1 weight%) excess of peptide): considerable reduction; also recorded: good degree of inhibition
reduction of FSL-1-induced TNFα secretion (human mononuclear cells; stimulus FSL-1, 100:1 excess of peptide): nearly completely abolished
inhibition of LP dependent TNFα production (human mononuclear cells; stimulus LP OspA and OspC, 10000 and 1000 ng/ml, peptide:LP ratio 10:1): inhibited
LP dependent TNFα production in presence of peptide (human mononuclear cells; stimulus LP OspA and OspC, peptide:LP 100:1 concentration ratio, data not shown): undetectable levels
reduction of LTA-dependent TNFα response (human mononuclear cells; stimulus LTA from S. aureus SA113Δlgt, 10000 and 1000 ng/ml, 10-fold excess of peptide): effectively reduced
inhibition of pro-inflammatory activity of MALP-2 (human mononuclear cells; stimulus MALP-2, 100:1 weight% excess of the peptide, data not shown): nearly complete inhibition
inhibition of PGN-induced TNFα response (human mononuclear cells; stimulus PGN from S. aureus SA113Δlgt, 10000 and 1000 ng/ml, 10-fold excess of peptide): totally inhibited
inhibition of Pam3CSK4-induced cytokine (TNFα) production (human mononuclear cells; stimulus Pam3CSK4 1000, 100, 10 ng/ml, [LP]:[Pep] up to 1:100 weight%): only a minor inhibitory effect; also recorded: no significant influence; also recorded: no or only a small inhibition
inhibition of LTA-induced TNFα (human mononuclear cells; stimulus commercial LTA from B. subtilis, 10:1 weight% excess of peptide): complete inhibition
inhibition of LTA-induced cytokine (human mononuclear cells; stimulus commercial LTA from S. aureus, data not shown): inhibited
